Experimental data published in patent US9497975B2, “Broad spectrum natural preservative composition” (The Trustees of Columbia University in the City of New York, priority 2011, dated 2016).

Experiments:
S. aureus = experiment: Antimicrobial activity of test formulations in cationic or anionic emulsion, Example 3; format: cell-based, Staphylococcus aureus; conditions: incubated 48 hours
Experimental: (§1) A stock solution was prepared containing the active ingredients and was then diluted in either a cationic or anionic test formulation, where the cationic formulation tested was Formulation A described in Example 1 and the anionic formulation tested was Formulation B described in Example 1: […]
(§2) Test formulations comprising the synthetic preservative methylparaben, at a concentration of 0.3% w/w, was used as a positive control.
(§3) The following method of testing for antimicrobial activity was used. 25 gms of emulsion containing 1-1.2% of various preservative was prepared. 0.9 gm aliquots of preservative containing emulsions were dispensed into several culture tubes. These were divided into various groups and inoculated with 0.1 ml of the test organism (bacteria, Candida albicans (10^8 cfu/ml) or Aspergillus niger (10^7 cfu/ml)). After mixing, the tubes were incubated for 48 hours for bacteria and for 7 days days for either C. albicans or A. niger. The cultures were then diluted serially with Drug Neutralizing Fluid (DNF) and 0.5 ml aliquots were plated on TSA and incubated for 24-48 hours (bacteria and C. albicans were incubated at 37° C. and A. niger at 30° C.). […] The log 10 reduction in colony counts of the test group from the colony counts of control group was determined.

P. aeruginosa = experiment: as above; format: cell-based, Pseudomonas aeruginosa; conditions: incubated 48 hours
Experimental: as §1, §2, §3

Aspergillus niger = experiment: as above; format: cell-based; conditions: incubated 7 days
Experimental: as §1, §2
(§4) The following method of testing for antimicrobial activity was used. 25 gms of emulsion containing 1-1.2% of various preservative was prepared. 0.9 gm aliquots of preservative containing emulsions were dispensed into several culture tubes. These were divided into various groups and inoculated with 0.1 ml of the test organism (bacteria, Candida albicans (10^8 cfu/ml) or Aspergillus niger (10^7 cfu/ml)). After mixing, the tubes were incubated for 48 hours for bacteria and for 7 days days for either C. albicans or A. niger. The cultures were then diluted serially with Drug Neutralizing Fluid (DNF) and 0.5 ml aliquots were plated on TSA and incubated for 24-48 hours (bacteria and C. albicans were incubated at 37° C. and A. niger at 30° C.). In the control group, the emulsion base without the preservatives was inoculated with each organism and processed similarly. The log 10 reduction in colony counts of the test group from the colony counts of control group was determined.

Candida albicans = experiment: as above; format: cell-based; conditions: incubated 7 days
Experimental: as §1, §2, §4

A. niger = experiment: Efficacy of BA, THC and essential oils in anionic emulsion against A. niger, Example 2; format: cell-based, Aspergillus niger; conditions: essential oil 0.3% w/w alone or with BA 0.5% w/w and THC 0.05% w/w, incubation 48 hours, average of nine samples
Experimental: 0.9 gm aliquots of preservative containing emulsions were dispensed into several culture tubes. These were divided into various groups and inoculated with 0.1 ml of the test organism (bacteria, Candida albicans (10^8 cfu/ml) or Aspergillus niger (10^7 cfu/ml). After mixing, the tubes were incubated for 48 hours for bacteria t days for either C. albicans or A. niger. The cultures were then diluted serially with Drug Neutralizing Fluid (DNF) and 0.5 ml aliquots were plated on TSA and incubated for 24-48 hours (bacteria and C. albicans were incubated at 37° C. and A. niger at 30° C.). In the control group, the emulsion base without the preservatives was inoculated with each organism and processed similarly.
Various essential oils were used along with BA and THC and incorporated in anionic emulsion and tested against A. niger.

[1] = anionic emulsion (Formulation B)
[2] = cationic emulsion (Formulation A)

Structure (SMILES)	log reduction from control growth, S. aureus (S. aureus; [1])	log reduction from control growth, S. aureus (S. aureus; [2])	log reduction from control growth, P. aeruginosa (P. aeruginosa; [1])	log reduction from control growth, P. aeruginosa (P. aeruginosa; [2])	log reduction from control growth, A. niger (Aspergillus niger; [1])	log reduction from control growth, A. niger (Aspergillus niger; [2])	log reduction from control growth, C. albicans (Candida albicans; [1])	log reduction from control growth, C. albicans (Candida albicans; [2])	log10 reduction in cfu, A. niger (A. niger)
COC(=O)c1ccc(O)cc1 [methyl paraben, methylparaben]	0.12 log10	1.9 log10	0.11 log10	2.1 log10	2.88 log10	4.16 log10	4.31 log10	4.25 log10	–
Cc1ccc(C(C)C)c(O)c1 [TH, Thymol]	–	–	–	–	–	–	–	–	0.8 log10
